Experimental data published in PubChem BioAssay AID248 (DTP/NCI, 2004).
Several values for one entry are separate records, joined by “and”; a condition that tells them apart may be missing. Equal values may be shown once. Inconclusive results and toxic doses are left out. Cut-off read from the data, not from the text of the source: active = T/C of 150% or more; inactive = T/C below 125%.

Test system: L1210 leukemia ip in BDF1 mice, survival T/C
Assay: NCI In Vivo Anticancer Drug Screen. Data for tumor model L1210 Leukemia (intraperitoneal) in B6D2F1 (BDF1) mice
Details: endpoint: mean survival time, higher = longer survival
In short: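 Transplanted-tumor mice were given test agent; controls received vehicle only. Survival readings from the two groups were divided (treated over control).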

[1] = dose: 100.0 mg/kg/injection, schedule: Q04DX003 (ip), vehicle: saline with Tween-80
[2] = dose: 200.0 mg/kg/injection, schedule: Q04DX003 (ip), vehicle: saline with Tween-80
[3] = dose: 100.0 mg/kg/injection, schedule: Q01DX001 (ip), vehicle: saline
[4] = dose: 200.0 mg/kg/injection, schedule: Q01DX001 (ip), vehicle: saline
[5] = dose: 400.0 mg/kg/injection, schedule: Q01DX001 (ip), vehicle: saline
[6] = dose: 100.0 mg/kg/injection, schedule: Q01DX009 (ip), vehicle: saline with Tween-80
[7] = dose: 200.0 mg/kg/injection, schedule: Q01DX009 (ip), vehicle: saline with Tween-80
[8] = dose: 400.0 mg/kg/injection, schedule: Q01DX009 (ip), vehicle: saline with Tween-80

Measured: T/C

O=C(NCCBr)NC1CC1c1ccccc1 (configuration not stated)
inactive: dose: 20.0 mg/kg/injection, schedule: Q04DX003 (ip), vehicle: Klucel (hydroxypropylcellulose) (HPC) 117 % of control | dose: 40.0 mg/kg/injection, schedule: Q04DX003 (ip), vehicle: Klucel (hydroxypropylcellulose) (HPC) 101 % of control | dose: 80.0 mg/kg/injection, schedule: Q04DX003 (ip), vehicle: Klucel (hydroxypropylcellulose) (HPC) 93 % of control | dose: 100.0 mg/kg/injection, schedule: Q04DX003 (ip), vehicle: Klucel (hydroxypropylcellulose) (HPC) 118 % of control

CC(C)=CCSc1ncnc2nc[nH]c12
inactive: dose: 31.0 mg/kg/injection, schedule: Q01DX Z (ip), vehicle: other 91 % of control | dose: 62.0 mg/kg/injection, schedule: Q01DX Z (ip), vehicle: other 117 % of control | dose: 125.0 mg/kg/injection, schedule: Q01DX Z (ip), vehicle: other 103 % of control | dose: 250.0 mg/kg/injection, schedule: Q01DX Z (ip), vehicle: other 109 % of control

COC(=O)CC[C@@H](C)[C@H]1CC[C@H]2[C@@H]3CC[C@@H]4C[C@H](O)CC[C@]4(C)[C@H]3CC[C@]12C
inactive: dose: 100.0 mg/kg/injection, schedule: Q01DX009 (sc), vehicle: olive oil, sesame oil, peanut oil 107 % of control | dose: 200.0 mg/kg/injection, schedule: Q01DX009 (sc), vehicle: olive oil, sesame oil, peanut oil 102 % of control | dose: 400.0 mg/kg/injection, schedule: Q01DX009 (sc), vehicle: olive oil, sesame oil, peanut oil 95 % of control

CN(c1ccccc1)S(=O)(=O)c1ccc(NC(=O)CBr)cc1
inactive: dose: 37.5 mg/kg/injection, schedule: Q01DX001 (ip), vehicle: Klucel (hydroxypropylcellulose) (HPC) 86 % of control | dose: 75.0 mg/kg/injection, schedule: Q01DX001 (ip), vehicle: Klucel (hydroxypropylcellulose) (HPC) 93 % of control

CN1CSC(=S)N(Cc2ccccc2)C1
inactive: dose: 100.0 mg/kg/injection, schedule: Q04DX002 (ip), vehicle: saline with Tween-80 94 % of control | dose: 200.0 mg/kg/injection, schedule: Q04DX002 (ip), vehicle: saline with Tween-80 97 % of control | dose: 400.0 mg/kg/injection, schedule: Q04DX002 (ip), vehicle: saline with Tween-80 105 % of control

CCC1(CC)C=CC(Br)CC1(CC)CC (configuration not stated)
inactive: [1] 103 % of control | [2] 101 % of control | dose: 400.0 mg/kg/injection, schedule: Q04DX003 (ip), vehicle: saline with Tween-80 101 % of control

COc1ccc(OC)c(NCCCN2C(=O)c3ccccc3C2=O)c1
inactive: dose: 100.0 mg/kg/injection, schedule: Q04DX002 (ip), vehicle: Klucel (hydroxypropylcellulose) (HPC) 87 % of control | dose: 200.0 mg/kg/injection, schedule: Q04DX002 (ip), vehicle: Klucel (hydroxypropylcellulose) (HPC) 102 % of control | dose: 400.0 mg/kg/injection, schedule: Q04DX002 (ip), vehicle: Klucel (hydroxypropylcellulose) (HPC) 91 % of control

O=C(O)C(Br)Cc1cnc[nH]1 (configuration not stated)
inactive: dose: 50.0 mg/kg/injection, schedule: Q01DX009 (ip), vehicle: saline 106 % of control | dose: 100.0 mg/kg/injection, schedule: Q01DX009 (ip), vehicle: saline 106 % of control | dose: 200.0 mg/kg/injection, schedule: Q01DX009 (ip), vehicle: saline 98 % of control

CCC(C)COC(=O)c1ccccc1-c1ccccc1C(=O)OCC(C)CC (configuration not stated)
inactive: dose: 100.0 mg/kg/injection, schedule: Q01DX001 (ip), vehicle: other 96 % of control | dose: 200.0 mg/kg/injection, schedule: Q01DX001 (ip), vehicle: other 98 % of control | dose: 400.0 mg/kg/injection, schedule: Q01DX001 (ip), vehicle: other 96 % of control

Cc1cc2nc(/C(C#N)=C/c3cc(Cl)cc(Cl)c3O)[nH]c2cc1C
inactive: dose: 100.0 mg/kg/injection, schedule: Q01DX009 (ip), vehicle: other 93 % of control | dose: 200.0 mg/kg/injection, schedule: Q01DX009 (ip), vehicle: other 104 % of control | dose: 400.0 mg/kg/injection, schedule: Q01DX009 (ip), vehicle: other 93 % of control

O=C1C=CC(=O)N1CO
inactive: dose: 2.5 mg/kg/injection, schedule: Q01DX009 (ip), vehicle: saline 91 % of control | dose: 2.5 mg/kg/injection, schedule: Q04DX003 (ip), vehicle: saline 96 % of control | dose: 5.0 mg/kg/injection, schedule: Q01DX009 (ip), vehicle: saline 94 % of control | dose: 5.0 mg/kg/injection, schedule: Q04DX003 (ip), vehicle: saline 98 % of control | dose: 10.0 mg/kg/injection, schedule: Q04DX003 (ip), vehicle: saline 91 % of control

Cc1cc(N(CCCl)CCCl)ccc1C1N(Cc2ccccc2N(C)C)CCCN1Cc1ccccc1N(C)C
inactive: dose: 4.0 mg/kg/injection, schedule: Q12HX018 (ip), vehicle: other 101 % of control | dose: 6.0 mg/kg/injection, schedule: Q12HX018 (ip), vehicle: other 98 % of control | dose: 8.0 mg/kg/injection, schedule: Q12HX018 (ip), vehicle: Klucel (hydroxypropylcellulose) (HPC) 102 % of control | dose: 8.0 mg/kg/injection, schedule: Q12HX018 (ip), vehicle: other 109 % of control | dose: 16.0 mg/kg/injection, schedule: Q12HX018 (ip), vehicle: Klucel (hydroxypropylcellulose) (HPC) 107 % of control | dose: 32.0 mg/kg/injection, schedule: Q12HX018 (ip), vehicle: Klucel (hydroxypropylcellulose) (HPC) 105 % of control

Cc1cc(=O)n2c3c(ccc([N+](=O)[O-])c13)OC2
inactive: [3] 104 % of control | [4] 99 % of control | [5] 95 % of control

Nc1ccn(CC(=O)c2cccs2)c(=O)n1
inactive: dose: 25.0 mg/kg/injection, schedule: Q01DX009 (ip), vehicle: saline with Tween-80 93 % of control | dose: 50.0 mg/kg/injection, schedule: Q01DX009 (ip), vehicle: saline with Tween-80 98 % of control | [6] 100 % of control and 103 % of control | [1] 94 % of control | [2] 110 % of control

CCOC(=O)C(=O)Nc1onc(C)c1NC(=O)C(=O)OCC
inactive: [6] 89 % of control | [7] 89 % of control | [8] 92 % of control

S=c1ssc2ccccc12
inactive: dose: 50.0 mg/kg/injection, schedule: Q04DX003 (ip), vehicle: saline 100 % of control | [3] 94 % of control and 96 % of control | dose: 100.0 mg/kg/injection, schedule: Q04DX003 (ip), vehicle: saline 97 % of control | [4] 94 % of control and 101 % of control | dose: 200.0 mg/kg/injection, schedule: Q04DX003 (ip), vehicle: saline 97 % of control | [5] 98 % of control

CCCCCCCCCCCSSCCCCCCCCCCC
inactive: dose: 100.0 mg/kg/injection, schedule: Q04DX003 (ip), vehicle: other 96 % of control | dose: 200.0 mg/kg/injection, schedule: Q04DX003 (ip), vehicle: other 96 % of control | dose: 400.0 mg/kg/injection, schedule: Q04DX003 (ip), vehicle: other 97 % of control

Cc1ccc(C)c(C(O)C(=O)O)c1 (configuration not stated)
inactive: dose: 75.0 mg/kg/injection, schedule: Q01DX001 (ip), vehicle: acetone 101 % of control | dose: 150.0 mg/kg/injection, schedule: Q01DX001 (ip), vehicle: acetone 98 % of control | dose: 300.0 mg/kg/injection, schedule: Q01DX001 (ip), vehicle: acetone 95 % of control

Clc1c(Cl)c(Cl)c(C(c2c(Cl)c(Cl)c(Cl)c(Cl)c2Cl)c2c(Cl)c(Cl)c(Cl)c(Cl)c2Cl)c(Cl)c1Cl
inactive: [6] 97 % of control | [7] 93 % of control | [8] 89 % of control

Cc1cc(=O)[nH]c2ccc(Cc3ccc(N)cc3)cc12
inactive: dose: 100.0 mg/kg/injection, schedule: Q01DX001 (ip), vehicle: carboxymethylcellulose (CMC) 95 % of control | dose: 200.0 mg/kg/injection, schedule: Q01DX001 (ip), vehicle: carboxymethylcellulose (CMC) 96 % of control | dose: 400.0 mg/kg/injection, schedule: Q01DX001 (ip), vehicle: carboxymethylcellulose (CMC) 98 % of control

O=C(COc1ccc(Cl)c(Cl)c1)Nc1ccc[n+](Cc2ccccc2S(=O)(=O)F)c1
inactive: [1] 96 % of control
